Test results taken from patent US11690853B2, “Non-hormonal steroid modulators of NF-κβ for treatment of disease” (ReveraGen BioPharma, Inc., priority 2015, dated 2023).
Entries after “also recorded” stand apart in the source; their conditions may differ.

Assays:
[1] = tested on: mdx mice; experiment: mdx mouse model: histological evaluation of gastrocnemius muscle (H&E); format: in vivo; conditions: H&E staining; 3 months treatment; comparison to untreated and prednisolone treated mdx mice
Experimental: (§1) Separate groups (n=12-14) of mdx mice were treated with prednisolone (5 mg/kg/day; per oral in feed), Example 1 (20 and 40 mg/kg/day; per oral in feed) and Example 2 (20 and 40 mg/kg/day; per oral in feed) for 3 months. All mice underwent 30 min biweekly treadmill exercise during the treatment duration to unmask the mild disease phenotype of mdx mouse model.
Hematoxylin and Eosin staining of gastrocnemius muscle of untreated mdx mice show significant degeneration and inflammation.

[2] = tested on: DBA/1 mice; experiment: Collagen antibody induced arthritis (CAIA) model; format: in vivo, mouse; parameters: Mean clinical severity score, Day 7 / Mean clinical severity score, Day 9 / Mean clinical severity score, Day 11 / Mean clinical severity score, Day 14: scale not given here; conditions: for Mean clinical severity score, Day 7 / Mean clinical severity score, Day 9 / Mean clinical severity score, Day 11 / Mean clinical severity score, Day 14: oral, day 0 through day 14; for Mean clinical severity score, Day 7 / Mean clinical severity score, Day 9 / Mean clinical severity score, Day 11 / Mean clinical severity score, Day 14 / Reduction as compared with vehicle-treated mice, Day 7 / Reduction as compared with vehicle-treated mice, Day 9 / Reduction as compared with vehicle-treated mice, Day 11 / Reduction as compared with vehicle-treated mice, Day 14: prednisone 5 mg/kg, Example 7 20 mg/kg
Experimental: On day 1, DBA/1 mice (Jackson Labs, Bar Harbor, Me.) received an intraperitoneal (i.p.) injection of 2 mg of monoclonal antibody cocktail specific for collagen (CII) (MD Biosciences, St. Paul, Minn.). Two days later (day 3), mice received an i.p. injection of 100 μg of lipopolysaccharide (LPS). Mean clinical severity of CAIA was determined using a macroscopic clinical severity scoring system every 2-3 days by three individuals until the end of the experiment (day 14 post antibody cocktail injection). The scoring criteria was performed as follows:
For intervention studies, mice (n=10) received an oral dose of 20 mg/kg of the compound of Example 7 suspended in cherry syrup (30 μl total volume) on day 0 through day 14. Additional groups of mice (n=10) received 5 mg/kg of prednisone in cherry syrup as a positive control, or cherry syrup alone as a negative control. On day 14, animals were sacrificed via CO2 exposure. Statistical analysis was performed using a two-way ANOVA followed by a Bonferroni post-hoc test.

[3] = tested on: mdx mice; experiment: mdx mouse model: in vitro force contractions of EDL muscle; format: in vivo; conditions: prednisolone 5 mg/kg/day; P<0.05
Experimental: as §1
The distal tendon of the extensor digitorum longus (EDL) muscle was tied securely to the lever arm of a servomotor/force transducer (model 305B, Aurora Scientific, Richmond Hill, ON, Canada) and the proximal tendon to a tissue clamp. Muscles were stimulated between two platinum electrodes. […] With the muscle held at Lo using stimulation frequencies of 30, 50, 80, 100, 120 and 150 Hz, the maximum isometric tetanic force (Po) developed during a 300 ms train of stimulation pulses was recorded for the EDL muscle. The muscle length was then measured with calipers and after removal of the muscle from the bath the mass of the muscle was determined. For each muscle, the optimum fiber length (Lf) was calculated by multiplying Lo by a previously determined Lf/Lo ratio of 0.45. Total muscle fiber cross-sectional area was determined by dividing the wet mass by the product of Lf and the density of mammalian skeletal muscle (1.06 mg/mm^3). […]

[4] = tested on: mdx mice; experiment: mdx mouse model of dystrophy: body weight; format: in vivo; conditions: prednisolone 5 mg/kg/day per oral in feed; 33.8 weeks age; P<0.05
Experimental: as §1

[5] = tested on: OVA-primed mice; experiment: OVA-induced mouse model of acute allergic asthma; format: in vivo; conditions: 20 mg/kg oral on days 6-11
Experimental: The model used in the current studies has been previously described (Gwinn et al. 2006; Balsley et al. 2010). Briefly, mice were primed via intraperitoneal (i.p) injection with 50 μg of OVA in PBS with 100 μl of alum (200 μl total volume per mouse) on day 0. OVA-primed mice were challenged under light anesthesia (isoflurane) by intranasal delivery of 100 μg of OVA in PBS on days 7-10. Mice were sacrificed via CO2 exposure on day 12 for analysis.
For in vivo intervention studies, mice (n=5) received an oral dose of 20 mg/kg of the compound of Example 7 suspended in cherry syrup (30 μl total volume) on days 6-11. Additional groups of mice (n=5) received 5 mg/kg of prednisone in cherry syrup as a positive control, or cherry syrup alone as a negative control. Following sacrifice on day 12, leukocytes were collected from the airways via bronchoalveolar lavage (BAL). For this procedure, a cannula was inserted into the trachea and two 1 ml washes of cold PBS were infused in and out of the airways. […]
BAL and lung tissue cells were treated with ammonium chloride lysis buffer to remove red blood cells. The remaining leukocytes were then counted and stained for FACS analysis with a combination of PE-Cy5-anti-mouse CD4 and FITC-anti-mouse CD62L to identify effector/memory CD4+ cells (CD4+/CD62L−). […]

[6] = tested on: J:NU mice injected with BSG mouse CSPG4+/+ cells; experiment: Mouse model of diffuse intrinsic pontine glioma; format: in vivo
Experimental: A murine model of brainstem glioma developed in Dr. Javad Nazarian's laboratory at Children's National Medical Center was used for testing VBP15 efficacy in vivo. BSG mouse CSPG4+/+ cells were expanded in culture to form neurospheres and were subsequently injected into brainstems of 2-day old (P2) J:NU mice. Dexamethasone (Dex) (2.5 mg/kg body weight), Example 7 (30 mg/kg body weight) and cherry syrup (control) were orally administered daily for […] starting on postnatal day 11. In another study, mice were treated daily with Dexamethasone (Dex) (2.5 mg/kg), Example 7 (30 mg/kg) or cherry syrup from post-natal days 10-46.

[7] = tested on: C57BL/6 mice; experiment: Mouse carrageenan-induced paw edema model; format: in vivo; conditions: Example 7 10, 20, 40 mg/kg in cherry syrup; 5 hours after carrageenan
Experimental: Female C57BL/6 mice (n=5 per group) were administered prednisone (5 mg/kg) and the compound of Example 7 (10, 20, 40 mg/kg) in cherry syrup. 24 hours later, drugs and vehicle control (syrup) were administered again. 2 hours later, mice were anesthetized, paw thickness was measured with a caliper to obtain a baseline value, and 1% carrageenan was injected subcutaneously in the subplantar region of the right hind paw. Mice were sacrificed 5 hours later and paw edema was measured via caliper. Change in thickness was calculated by subtracting baseline value from post-carrageenan injection value. Statistical analysis was performed using a Student's T-test.

[8] = tested on: DBA mdx mice; experiment: Heart function in mdx mice (echocardiography); format: in vivo, mouse; conditions: 15 and 30 mg/kg/day oral syrup, 8 weeks
Excerpt: To test the compound of Example 7 and its relationship to heart function, 4 groups of mdx mice (n=10, per group) and 1 group of wild type mice (n=10, per group) were studied. The groups were as indicated as such in Table 2.
The method of administration was a daily oral syrup an the treatment period was eight (8) weeks. The age at the start of the first dose was 6-7 weeks. Echocardiography was used to assess ejection fraction and fraction shortening following drug treatment.

[9] = tested on: knockout-transgenic sickle cell mice; experiment: Mouse model of sickle cell disease; format: in vivo; conditions: 30 mg/kg, 6 weeks
Experimental: Example 7 was tested in a mouse model of sickle cell disease, knockout-transgenic sickle cell mice were used which have been previously described in Meiler S E et al. 2001.
Female knockout-transgenic sickle mice (aged 6-8 weeks), were treated for 6 weeks with Example 7, (30 mg/kg) (n=5), or a vehicle control (cherry syrup) (n=5). At the end of the 6 week treatment, hematologic parameters were measured and tissues were harvested. Additionally, nociception evaluation was performed before and after treatment by assessing sensitivity to hot and cold pain as previously described in Le Bars D. et al. 2001.

[10] = tested on: Female beagle dogs; experiment: Corpora lutea in female dogs, 39-week treatment; format: in vivo, dog; conditions: at ≥2 mg/kg/day, dose-dependent increases in incidence; doses of 2, 10, or 50 mg/kg for 39 weeks
Experimental: Female beagle dogs were treated with Example 7 for 39 weeks at doses of 2, 10, or 50 mg/kg. This experiment was performed at MPI (report #1998-014). Ovaries were examined by a trained pathologist.

| Structure (SMILES) | Histology of skeletal muscle: inflammation, degeneration, regenerating fibers [1] | Mean clinical severity score, Day 7 [2] | Mean clinical severity score, Day 9 [2] | Mean clinical severity score, Day 11 [2] | Mean clinical severity score, Day 14 [2] | Reduction as compared with vehicle-treated mice, Day 7 [2] [%] | Reduction as compared with vehicle-treated mice, Day 9 [2] [%] | Reduction as compared with vehicle-treated mice, Day 11 [2] [%] | Reduction as compared with vehicle-treated mice, Day 14 [2] [%] | further results |
| --- | --- | --- | --- | --- | --- | --- | --- | --- | --- | --- |
| C[C@]12C=CC(=O)C=C1CCC1C2=CC[C@@]2(C)C1CC[C@]2(O)C(=O)CO (stereo partly drawn) [Example 2, (10S,13S,17R)-17-hydroxy-17-(2-hydroxyacetyl)-10,13-dimethyl-6,7,8,10,12,13,14,15,16,17-decahydro-3H-cyclopenta[a]phenanthren-3-one] | significant decrease in inflammation, degeneration, and increase in regenerating muscle fibers |  |  |  |  |  |  |  |  |  |
| C[C@]12C=CC(=O)C=C1CC[C@@H]1[C@@H]2C(=O)C[C@@]2(C)[C@H]1CC[C@]2(O)C(=O)CO [Prednisone, reference compound] |  | 2.4 ± 0.68 | 1.5 ± 0.27 | 2.9 ± 0.39 | 0.7 ± 0.3 | 69.8 | 69.8 | 69.1 | 88.7 |  |
| C[C@]12C=CC(=O)C=C1CC[C@@H]1[C@@H]2[C@@H](O)C[C@@]2(C)[C@H]1CC[C@]2(O)C(=O)CO [Prednisolone] | appeared to increase degeneration and decrease in regeneration |  |  |  |  |  |  |  |  | Specific force of EDL muscle, difference to untreated group [3]: no statistically significant (P<0.05) difference; Body weight versus untreated mice [4]: significantly lower body weight |
| C[C@]12CCC(=O)C=C1CCC1C2=CC[C@@]2(C)C1CC[C@]2(O)C(=O)CO (stereo partly drawn) [Example 1, (10S,13S,17R)-17-hydroxy-17-(2-hydroxyacetyl)-10,13-dimethyl-6,7,8,10,12,13,14,15,16,17-decahydro-1H-cyclopenta[a]phenanthren-3(2H)-one] | significant decrease in inflammation, degeneration, and increase in regenerating muscle fibers |  |  |  |  |  |  |  |  |  |
| C[C@@H]1CC2C3CCC4=CC(=O)C=C[C@]4(C)C3=CC[C@]2(C)[C@@]1(O)C(=O)CO (stereo partly drawn) [Example 7, (10S,13S,16R,17R)-17-hydroxy-17-(2-hydroxyacetyl)-10,13,16-trimethyl-6,7,8,10,12,13,14,15,16,17-decahydro-3H-cyclopenta[a]phenanthren-3-one] |  | 4.5 ± 0.95 | 5.0 ± 0.77 | 5.6 ± 0.82 | 3.1 ± 0.69 | 43.8 | 35.5 | 41.3 | 50 | Acute allergic lung inflammation: leukocyte infiltration (eosinophils and CD4+ T cells) and mucus production [5]: effective at improving parameters of acute allergic lung inflammation; Increase in survival relative to mice treated with dexamethasone or control mice ([6]; 30 mg/kg daily from post-natal days 10-46): 19%; Brain edema ([6]; 30 mg/kg oral daily for 14 weeks starting on postnatal day 11): significant decrease in brain edema; Paw edema induced by carrageenan (change in paw thickness) [7]: effective at reducing mouse paw edema; Ejection fraction [8]: improved ejection fraction; Fraction shortening [8]: improved fraction shortening; Platelet count [9]: decreases; also recorded: reduces platelet count; Sensitivity to cold pain [9]: strikingly decreases sensitivity to cold pain; also recorded: reduces sensitivity to cold pain; Sensitivity to heat pain [9]: significantly decreases sensitivity to heat pain; also recorded: reduces sensitivity to heat pain; Spleen size [9]: decreased spleen size; also recorded: reduces spleen size; White blood cell count [9]: decreases white blood cell count; also recorded: reduces white blood cell count; Corpora lutea in the ovaries [10]: absent bilaterally; Collagen antibody induced arthritis, overall effect ([2]; 20 mg/kg oral): effective at reducing collagen antibody induced arthritis |
